From patent US12186361B2, “Method and formulation for inhalation” (Monash University, priority 2011, dated 2025)

Experiments:
[1] = Oxytocin stability: LC/MS assay content recovered after TSI experiments; assay type: physicochemical; conditions: all TSI stages, capsules and inhalation devices, after spray drying at 70° C. outlet
Procedure: All five capsules were activated into the same TSI. The used capsules and the inhalers were then washed with Milli-Q water into a 100 mL volumetric flask and made up to volume. This was called the ‘residual’ stage. The parts that made up Stage 1 (parts A, B, C and D) were washed into a 200 mL volumetric flask and the parts that made up Stage 2 (parts E, F, G and H) were washed into a 50 mL volumetric flask with Milli-Q water and called ‘stage 1’ and ‘stage 2’ respectively. The amounts of oxytocin in each stage of the TSI were determined by LC/MS assay. The fine particle fraction (FPF) was calculated as the amount of powder that had reached stage 2 of the TSI apparatus divided by total amount of drug that was assayed. This test was the most important measure as it can determine whether a powder containing oxytocin can be formulated with suitable aerosol deposition, and consequent absorption from the lung.
Peptides can potentially be denatured due to extreme heat. From the tests that were conducted in this study, the only indication as to oxytocin stability was the LC/MS assay content following the TSI experiments.

[2] = tested on: uterine contraction (uterine EMG activity); experiment: In vivo uterine EMG activity after oxytocin delivery in post-partum ewes (Example 5); set-up: species or system sheep; conditions: for delay from oxytocin administration to uterine contractile response (first EMG burst): post-partum ewes, n=5, average
Text: On day 135 gestational age, pregnant ewes (n=5) were anaesthetised with thiopentone in preparation for surgery. Isuflorane (2.5% in oxygen) was used to maintain anaesthesia and depomycin, procaine penicillin and dihydrostreptomycin were given for pain relief and to reduce the risk of infection. Each ewe was shaved and a 10 cm incision was made in the abdominal skin at the midline below the navel to expose the uterine wall, with care taken to avoid large blood vessels.
Three sterile stainless steel wires for measuring electromyographical (EMG) activity (0.07 mm diameter, inside a 2 mm catheter) were embedded in the smooth muscle layer of the myometrium surrounding the womb and held there by two stitches. The electrodes were passed through a catheter and out of the ewe via a small incision (2 cm) through the right flank. A catheter was inserted in the right jugular to allow for blood samples and to induce labour. Ewes were returned to metabolic cages and given 3-5 days to recover from surgery.
Labour was induced with two 5 ml intravenous injections of dexamethasone (consisting of 5 mg of dexamethasone phosphate and 10 mg of dexamethasone phenylpropionate) 24 hours apart. Labour occurred 54±2 hours after the first dexamethasone injection.
Oxytocin administrations, as detailed above, were performed within 15 hours of delivery. Each sheep received an intra-tracheal dose of dry powder oxytocin formulation, an intra-tracheal instillation of oxytocin in solution and an intramuscular injection of oxytocin. There was at least a one and a half hour washout period between each treatment.
For intra-tracheal administration, an endoscope was passed through the nasal passage into the trachea and positioned near the first bronchial bifurcation, where either a 1 mL aliquot of oxytocin in solution (10 IU) was released or 10 mg (average) of dry powder was delivered through a modified PennCentury powder delivery device.
The dry powder formulation comprised a spray dried composition, as described in example 1. This powder contained 13 units of oxytocin per mg by mass, co-spray dried with equal proportions by mass of mannitol, glycine and leucine.
During this procedure, bronchoscope video images were captured using a Linvatec IM3301 Pal Video Camera attached to an endoscope (Pentax FG-16X), which was saved as a digital file onto a computer using Video Capture Software.
A cyberamp 380 in conjunction with MACLAB hardware (400 Hz Sample rate) and Chart 4 software (10V Input range) was used to display and record action potential originating from smooth muscle cells within the uterus. The cyberamp 380 used the AI401probe with positive input set at AC and negative input set at Ground. The AC cut off was 10 Hz and the prefilter gain set at 100 mV. The low pass filter was set at 300 Hz, the notch filter set to off, the output gain set to 5 and the total gain left at 500. Two way repeated measure ANOVA was performed to determine the statistical significance of our data.

[3] = pulmonary versus IM delivery and post-partum activity

CC[C@H](C)[C@@H]1NC(=O)[C@H](Cc2ccc(O)cc2)NC(=O)[C@@H](N)CSSC[C@@H](C(=O)N2CCC[C@H]2C(=O)N[C@@H](CC(C)C)C(=O)NCC(N)=O)NC(=O)[C@H](CC(N)=O)NC(=O)[C@H](CCC(N)=O)NC1=O [oxytocin]
oxytocin recovered of the initial capsule's dose [1]: 90.23±5.41%
total duration of EMG activity ([2]; IM compared to airway delivery and normal post-partum activity): significantly longer
delay from oxytocin administration to uterine contractile response (first EMG burst) ([2]; IM delivery): approximately 250 seconds
delay from oxytocin administration to uterine contractile response (first EMG burst) ([2]; pulmonary (intra-tracheal) delivery): faster time of onset
length of the initial burst of EMG activity [2, 3]: No differences
number of bursts over the first 30 minutes following the initial burst [2, 3]: nor was there a difference
